Source: patent publication US9315458B2, “Nitrogen-containing heterocyclic compound” (Takeda Pharmaceutical Company Limited, priority 2014, dated 2016)

Target: T1, human M1 receptor (hCHRM1) (Homo sapiens, UniProt P11229)
T1 construct: expressed in transfected cells
T1 sequence (P11229 1-460): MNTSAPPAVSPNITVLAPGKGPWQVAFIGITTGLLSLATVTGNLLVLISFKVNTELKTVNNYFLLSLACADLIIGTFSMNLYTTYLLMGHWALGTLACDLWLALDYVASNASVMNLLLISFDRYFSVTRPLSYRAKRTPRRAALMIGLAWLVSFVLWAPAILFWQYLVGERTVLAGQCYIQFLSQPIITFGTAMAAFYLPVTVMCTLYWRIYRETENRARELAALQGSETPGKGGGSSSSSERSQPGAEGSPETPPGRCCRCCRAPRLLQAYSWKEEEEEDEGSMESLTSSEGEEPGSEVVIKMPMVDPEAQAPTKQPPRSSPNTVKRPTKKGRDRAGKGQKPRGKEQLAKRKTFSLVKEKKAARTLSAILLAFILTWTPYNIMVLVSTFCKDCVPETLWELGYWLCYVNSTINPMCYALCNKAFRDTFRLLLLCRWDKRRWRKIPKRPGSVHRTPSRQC
Assay: Measurement of M1 receptor positive allosteric modulator (M1PAM) activity, calcium fluorescence (FLIPRtetra) with acetylcholine at EC20
Type: cell-based
Conditions: for activity (%) at 10 μM: 10 μM test compound, 100% = acetylcholine 1 μM, 0% = DMSO, acetylcholine at EC20; for EC50: inflection point of concentration-dependent curve, CHO-K1 cells expressing hCHRM1, acetylcholine at EC20 (final 0.6-0.8 nM), read-out: IP value
In short: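 CHO-K1 cells stably expressing hCHRM1, Fluo-4 AM loaded; compound added with acetylcholine at EC20 (final 0.6-0.8 nM), fluorescence read 1 min. Activity normalised to 1 μM acetylcholine (100%) and DMSO (0%); IP values taken as inflection point of the concentration-response curve.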

Structure (SMILES) | activity (%) at 10 μM [%] | EC50 [nM]
CCc1cc2c(cc1Cc1ccc(-c3cn(C)nn3)cc1)C(=O)N(CC1CCCO1)C2 (centres unmarked) [Example 105, 5-ethyl-6-(4-(1-methyl-1H-1,2,3-triazol-4-yl)benzyl)-2-(tetrahydrofuran-2-ylmethyl)isoindolin-1-one] | 92 | 10
Cc1c(Cc2ccc(-c3ccn(C)n3)cc2)cc2c(c1C)CN(CC1CCCO1)C2=O (centres unmarked) [Example 85, 4,5-dimethyl-6-(4-(1-methyl-1H-pyrazol-3-yl)benzyl)-2-(tetrahydrofuran-2-ylmethyl)isoindolin-1-one] | 105 | 41
Cc1c(Cc2ccc(C#N)cc2F)cc2c(c1C)CN([C@H]1CCC[C@@H]1O)C2=O [Example 125, 3-fluoro-4-((2-((1S,2S)-2-hydroxycyclopentyl)-6,7-dimethyl-3-oxo-2,3-dihydro-1H-isoindol-5-yl)benzyl)benzonitrile] | 93 | 73
O=C1c2cc(Cc3ccc(-n4cccn4)cc3)c(C3CC3)cc2CN1CC1CCCO1 (centres unmarked) [Example 62, 5-cyclopropyl-6-(4-(1H-pyrazol-1-yl)benzyl)-2-(tetrahydrofuran-2-ylmethyl)isoindolin-1-one] | 103 | 95
Cc1c(Cc2ccc(-n3cccn3)cc2)cc2c(c1C)CN(c1ncccc1F)C2=O [Example 153, 2-(3-fluoropyridin-2-yl)-4,5-dimethyl-6-(4-(1H-pyrazol-1-yl)benzyl)isoindolin-1-one] | 92 | 57
Cc1cc2c(cc1Cc1ccc(-c3ccn(C)n3)nc1)C(=O)N([C@H]1CCCC[C@@H]1O)C2 (racemic) [Example 42, rac-2-(trans-2-hydroxycyclohexyl)-5-methyl-6-((6-(1-methyl-1H-pyrazol-3-yl)pyridin-3-yl)methyl)isoindolin-1-one] | 115 | 9.2
Cc1c(Cc2ccc(-n3cccn3)cc2)cc2c(c1F)CN(CC(C)(C)O)C2=O [Example 127, 4-fluoro-2-(2-hydroxy-2-methylpropyl)-5-methyl-6-(4-(1H-pyrazol-1-yl)benzyl)isoindolin-1-one] | 104 | 59
CNC(=O)c1ccc(Cc2cc3c(c(C)c2C)CN([C@H]2COCC[C@@H]2O)C3=O)cc1F [Example 19, 1,5-anhydro-2,4-dideoxy-2-(6-(3-fluoro-4-(methylcarbamoyl)benzyl)-4,5-dimethyl-1-oxo-1,3-dihydro-2H-isoindol-2-yl)-L-threo-pentitol] | 101 | 2
COc1ccc(Cc2cc3c(c(F)c2OC)CN([C@H]2COCC[C@@H]2O)C3=O)cc1 [Example 157] | 97 | 84
Cc1cc2c(cc1Cc1ccc(-c3cn(C)nn3)cc1F)C(=O)N([C@H]1CCC[C@@H]1O)C2 (racemic) [Example 53, rac-6-(2-fluoro-4-(1-methyl-1H-1,2,3-triazol-4-yl)benzyl)-2-(trans-2-hydroxycyclopentyl)-5-methylisoindolin-1-one] | 103 | 28
Cc1nn(C)cc1-c1ccc(Cc2cc3c(c(C)c2C)CN([C@H]2CCC[C@@H]2O)C3=O)c(F)c1 (racemic) [Example 95, rac-6-(4-(1,3-dimethyl-1H-pyrazol-4-yl)-2-fluorobenzyl)-2-(trans-2-hydroxycyclopentyl)-4,5-dimethylisoindolin-1-one] | 92 | 26
Cc1c(Cc2ccc(-n3cccn3)cc2F)cc2c(c1C)CN([C@H]1CCC[C@@H]1O)C2=O [Example 16, 6-(2-fluoro-4-(1H-pyrazol-1-yl)benzyl)-2-((1S,2S)-2-hydroxycyclopentyl)-4,5-dimethylisoindolin-1-one] | 94 | 12
CCc1cc2c(cc1Cc1ccc(-c3ccn(C)n3)cc1)C(=O)N([C@H]1CCC[C@@H]1O)C2 [Example 120, 5-ethyl-2-((1S,2S)-2-hydroxycyclopentyl)-6-(4-(1-methyl-1H-pyrazol-3-yl)benzyl)isoindolin-1-one] | 93 | 25
COc1ccc(Cc2cc3c(cc2C)CN([C@H]2COCC[C@@H]2O)C3=O)cc1 [Example 164, 2-[(3S,4S)-4-hydroxytetrahydro-2H-pyran-3-yl]-6-(4-methoxybenzyl)-5-methyl-2,3-dihydro-1H-isoindol-1-one] | 102 | 62
Cc1c(Cc2ccc(-n3cccn3)cc2)cc2c(c1Cl)CN([C@H]1CCCC[C@@H]1O)C2=O (racemic) [Example 93, rac-4-chloro-2-(trans-2-hydroxycyclohexyl)-5-methyl-6-(4-(1H-pyrazol-1-yl)benzyl)isoindolin-1-one] | 94 | 5.6
Cc1c(Cc2ccc(-n3cccn3)cc2)cc2c(c1F)CN([C@H]1CCC[C@@H]1O)C2=O [Example 107, 4-fluoro-2-((1S,2S)-2-hydroxycyclopentyl)-5-methyl-6-(4-(1H-pyrazol-1-yl)benzyl)isoindolin-1-one] | 102 | 14
Cc1cc2c(cc1Cc1ccc(-c3cn(C)nn3)cc1)C(=O)N([C@H]1CCC[C@@H]1O)C2 (racemic) [Example 48, rac-2-(trans-2-hydroxycyclopentyl)-5-methyl-6-(4-(1-methyl-1H-1,2,3-triazol-4-yl)benzyl)isoindolin-1-one] | 102 | 31
O=C1c2cc(Cc3ccc(-n4cccn4)cc3)c(C3CC3)cc2CN1[C@H]1CCC[C@@H]1O (racemic) [Example 9, rac-5-cyclopropyl-2-(trans-2-hydroxycyclopentyl)-6-(4-(1H-pyrazol-1-yl)benzyl)isoindolin-1-one] | 102 | 43
Cc1c(Cc2ccc(C(N)=O)cc2F)cc2c(c1C)CN([C@H]1COCC[C@@H]1O)C2=O (racemic) [Example 113, rac-3-fluoro-4-((2-(trans-4-hydroxytetrahydro-2H-pyran-3-yl)-6,7-dimethyl-3-oxo-2,3-dihydro-1H-isoindol-5-yl)methyl)benzamide] | 82 | 1.5
COc1cc2c(cc1Cc1ccc(-n3cccn3)cc1)C(=O)N([C@H]1CCCC[C@@H]1O)C2 (racemic) [Example 3, rac-2-(trans-2-hydroxycyclohexyl)-5-methoxy-6-(4-(1H-pyrazol-1-yl)benzyl)isoindolin-1-one] | 106 | 15
Cc1c(Cc2ccc(C#N)cc2)cc2c(c1C)CN([C@H]1COCC[C@@H]1O)C2=O [Example 156, 4-({2-[(3S,4S)-4-hydroxytetrahydro-2H-pyran-3-yl]-6,7-dimethyl-3-oxo-2,3-dihydro-1H-isoindol-5-yl}methyl)benzonitrile] | 80 | 4.3
Cc1c(Cc2ccc(-c3cn(C)nn3)cc2)cc2c(c1C)CN(C[C@@H]1CCCO1)C2=O [Example 14, 4,5-dimethyl-6-(4-(1-methyl-1H-1,2,3-triazol-4-yl)benzyl)-2-((2S)-tetrahydrofuran-2-ylmethyl)isoindolin-1-one] | 94 | 1.2
CNC(=O)c1ccc(Cc2cc3c(c(C)c2C)CN(C[C@@H]2CCCO2)C3=O)cc1F [Example 139, 4-((6,7-dimethyl-3-oxo-2-((2S)-tetrahydrofuran-2-ylmethyl)-2,3-dihydro-1H-isoindol-5-yl)methyl)-2-fluoro-N-methylbenzamide] | 102 | 14
CCc1cc2c(cc1Cc1ccc(-n3cccn3)cc1)C(=O)N(CC1CCCO1)C2 (centres unmarked) [Example 58, 5-ethyl-6-(4-(1H-pyrazol-1-yl)benzyl)-2-(tetrahydrofuran-2-ylmethyl)isoindolin-1-one] | 100 | 95
Cc1cc(-c2ccc(Cc3cc4c(cc3C)CN([C@H]3CCCC[C@@H]3O)C4=O)cn2)ccn1 (racemic) [Example 6, rac-2-(trans-2-hydroxycyclohexyl)-5-methyl-6-((2′-methyl-2,4′-bipyridin-5-yl)methyl)isoindolin-1-one] | 101 | 5.3
Cc1c(Cc2ccc(-n3cccn3)cc2)cc2c(c1Cl)CN([C@H]1COCC[C@@H]1O)C2=O [Example 130, 4-chloro-2-[(3S,4S)-4-hydroxytetrahydro-2H-pyran-3-yl]-5-methyl-6-[4-(1H-pyrazol-1-yl)benzyl]-2,3-dihydro-1H-isoindol-1-one] | 94 | 2.2
COc1ccc(Cc2cc3c(c(C)c2C)CN([C@H]2CCCC[C@@H]2O)C3=O)cc1 [Example 141, 2-((1S,2S)-2-hydroxycyclohexyl)-6-(4-methoxybenzyl)-4,5-dimethylisoindolin-1-one] | 106 | 18
Cc1c(Cc2ccc(-c3ccn(C)n3)cc2)cc2c(c1C)CN(CC(C)(C)O)C2=O [Example 114, 2-(2-hydroxy-2-methylpropyl)-4,5-dimethyl-6-(4-(1-methyl-1H-pyrazol-3-yl)benzyl)isoindolin-1-one] | 96 | 15
